According to US20170182088A1, “METHOD AND APPARATUS FOR ADMINISTERING NITRIC OXIDE WITH SUPPLEMENTAL DRUGS” (GENO LLC, priority 2015, published 2017):

How the values were obtained:
CTGF [1] = details: infusion, scleroderma patients; cited from earlier work
CTGF [2] = details: fibroblasts exposed to TGF-β; cited from earlier work
Angiotensin II = details: cited from earlier work
polymicrobial sepsis = assay: Polymicrobial sepsis-induced lung injury; type: in vivo; details: H2 and/or NO treatment
Source text: However until applicants' discovery, there has not been a successful combination of hydrogen gas with breathing gas using the claimed apparatus and methods. Applicants have discovered that NO's effect as an antioxidant may be enhanced by eliminating highly reactive by-products of NO inhalation such as peroxynitrite, by adding H2 to inhaled NO gas.

neonatal piglets = details: short-term inhaled exposure; cited from earlier work
[3] = system: mice with intratracheal administration of LPS; assay: LPS-induced lung injury in mice (intratracheal LPS); type: in vivo; details: for lung injury after intratracheal LPS: 2% H2 and/or 20 ppm NO for 3 hours starting at 5 minutes or 3 hours after LPS; for pulmonary inflammation and cell apoptosis: H2 and/or NO treatment
rats = details: inhaled; cited from earlier work
NF-κB = assay: LPS-induced pulmonary NF-κB activation; type: in vivo, mice; details: H2 and/or NO treatment
Nox4 = target: T1, Nox4 (Homo sapiens, UniProt Q9NPH5); details: cited from earlier work
T1 construct: endogenous in cells; host or cells: pulmonary vascular wall cells under hypoxia
T1 sequence (Q9NPH5 1-578): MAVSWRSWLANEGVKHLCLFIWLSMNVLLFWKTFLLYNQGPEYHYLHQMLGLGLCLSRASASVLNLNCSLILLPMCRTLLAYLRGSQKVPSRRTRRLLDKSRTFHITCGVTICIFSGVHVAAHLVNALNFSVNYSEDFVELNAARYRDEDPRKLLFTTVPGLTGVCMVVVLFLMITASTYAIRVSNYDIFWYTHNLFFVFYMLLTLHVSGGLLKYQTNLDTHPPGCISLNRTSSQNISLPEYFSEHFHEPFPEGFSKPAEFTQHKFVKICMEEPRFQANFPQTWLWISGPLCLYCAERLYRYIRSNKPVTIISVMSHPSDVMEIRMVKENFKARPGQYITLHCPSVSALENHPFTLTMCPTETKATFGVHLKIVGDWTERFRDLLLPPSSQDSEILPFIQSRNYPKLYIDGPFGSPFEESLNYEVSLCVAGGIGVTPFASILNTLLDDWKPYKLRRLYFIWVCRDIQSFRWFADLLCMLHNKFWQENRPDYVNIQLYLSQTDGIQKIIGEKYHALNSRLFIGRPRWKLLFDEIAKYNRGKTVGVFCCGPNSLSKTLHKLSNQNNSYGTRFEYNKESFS
T1 sequence (P13498 1-195 partner): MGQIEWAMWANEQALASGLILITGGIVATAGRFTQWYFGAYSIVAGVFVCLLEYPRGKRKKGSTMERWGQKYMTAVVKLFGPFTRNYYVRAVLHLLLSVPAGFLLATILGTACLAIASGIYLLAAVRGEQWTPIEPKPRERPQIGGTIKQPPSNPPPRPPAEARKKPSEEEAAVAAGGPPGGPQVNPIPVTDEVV

neonatal rats = details: cited from earlier work
brain injury = details: inhaled, acute rat model; cited from earlier work
TRPM2 = target: T2, TRPM2 (Mus musculus, UniProt Q91YD4); details: responses comparable to fMLP-stimulated TRPM2 KO PMN; cited from earlier work
T2 construct: endogenous in cells; host or cells: PMN (neutrophils), fMLP-stimulated; work retold from a cited abstract (J. Immunol. 2010, 184)
T2 sequence (Q91YD4 whole entry): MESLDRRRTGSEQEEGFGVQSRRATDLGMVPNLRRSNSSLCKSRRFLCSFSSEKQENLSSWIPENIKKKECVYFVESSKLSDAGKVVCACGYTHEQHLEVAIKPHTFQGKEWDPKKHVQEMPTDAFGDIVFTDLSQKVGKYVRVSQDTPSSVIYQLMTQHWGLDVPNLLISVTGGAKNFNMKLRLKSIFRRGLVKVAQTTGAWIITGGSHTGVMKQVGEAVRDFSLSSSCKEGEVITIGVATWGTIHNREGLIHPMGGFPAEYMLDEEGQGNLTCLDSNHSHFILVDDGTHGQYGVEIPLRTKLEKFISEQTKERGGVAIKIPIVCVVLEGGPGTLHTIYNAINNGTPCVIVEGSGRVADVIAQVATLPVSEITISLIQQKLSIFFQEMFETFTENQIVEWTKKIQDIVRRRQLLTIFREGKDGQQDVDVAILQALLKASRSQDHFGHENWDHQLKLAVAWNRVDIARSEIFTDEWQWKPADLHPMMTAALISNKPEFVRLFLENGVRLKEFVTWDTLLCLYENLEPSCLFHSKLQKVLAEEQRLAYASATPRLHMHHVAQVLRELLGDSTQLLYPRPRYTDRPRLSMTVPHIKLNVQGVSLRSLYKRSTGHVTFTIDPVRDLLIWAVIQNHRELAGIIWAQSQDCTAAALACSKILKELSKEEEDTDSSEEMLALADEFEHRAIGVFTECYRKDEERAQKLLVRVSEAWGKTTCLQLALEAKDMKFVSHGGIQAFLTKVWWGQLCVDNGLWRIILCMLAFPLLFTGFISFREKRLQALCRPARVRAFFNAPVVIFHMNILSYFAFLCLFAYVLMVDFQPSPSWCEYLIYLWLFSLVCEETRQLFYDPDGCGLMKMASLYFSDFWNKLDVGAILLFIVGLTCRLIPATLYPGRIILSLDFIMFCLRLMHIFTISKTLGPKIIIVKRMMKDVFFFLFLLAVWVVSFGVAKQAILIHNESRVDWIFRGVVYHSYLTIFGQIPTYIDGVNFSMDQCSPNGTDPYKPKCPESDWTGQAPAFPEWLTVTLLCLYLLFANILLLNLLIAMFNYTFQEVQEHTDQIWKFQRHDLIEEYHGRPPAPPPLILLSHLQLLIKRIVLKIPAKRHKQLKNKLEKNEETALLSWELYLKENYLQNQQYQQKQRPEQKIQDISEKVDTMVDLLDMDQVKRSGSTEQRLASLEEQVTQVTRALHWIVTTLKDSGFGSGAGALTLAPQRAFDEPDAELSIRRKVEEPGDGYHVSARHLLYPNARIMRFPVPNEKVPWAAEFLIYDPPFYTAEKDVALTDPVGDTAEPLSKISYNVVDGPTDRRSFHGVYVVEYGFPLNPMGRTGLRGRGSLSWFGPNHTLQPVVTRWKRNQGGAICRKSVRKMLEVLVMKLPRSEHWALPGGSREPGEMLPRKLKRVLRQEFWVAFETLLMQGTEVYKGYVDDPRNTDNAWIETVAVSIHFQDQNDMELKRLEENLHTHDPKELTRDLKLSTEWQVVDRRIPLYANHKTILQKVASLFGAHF

PMN (Neutrophil) = details: cited from earlier work

CC#CCC(C)[C@H](O)/C=C/[C@@H]1[C@H]2C/C(=C/CCCC(=O)O)C[C@H]2C[C@H]1O (stereo partly drawn) [Iloprost]
dermal CTGF levels (CTGF [1]): marked decrease
increase in collagen synthesis (CTGF [2]): blocks
induction of CTGF (CTGF [2]): blocks

CC(=O)N[C@@H](CS)C(=O)O [N-acetylcysteine]
Ang II-stimulated DNA synthesis, cell migration, pro-collagen α1(I) mRNA expression, secretion of TGF-β1 and inflammatory cytokines (Angiotensin II): attenuated

[N]=O [NO, nitric oxide]
lung injury in polymicrobial sepsis (polymicrobial sepsis): significantly attenuated
lung collagen accumulation (neonatal piglets): increases
lung injury after intratracheal LPS [3]: significantly improved
pulmonary inflammation and cell apoptosis [3]: down-regulated
survival in high O2 exposure (rats): increase
LPS-induced pulmonary early and late NF-κB activation (NF-κB): inhibited

c1ccc2c(c1)[I+]c1ccccc1-2 [diphenylene iodonium]
Ang II-stimulated DNA synthesis, cell migration, pro-collagen α1(I) mRNA expression, secretion of TGF-β1 and inflammatory cytokines (Angiotensin II): attenuated

CN(C)c1cccc(-c2c3c(=O)n(-c4ccccc4Cl)[nH]c3cc(=O)n2C)c1 [GKT137831]
hypoxia-induced pulmonary vascular cell proliferation (Nox4): attenuates

COC(=O)[C@@H](N)CCCNC(=N)N[N+](=O)[O-] [Nw-nitro-l-arginine methyl ester]
survival on exposure to >95% O2 compared with control rats (neonatal rats): significantly fewer survived

[HH] [H2, hydrogen]
lung injury in polymicrobial sepsis (polymicrobial sepsis): significantly attenuated
lung injury after intratracheal LPS [3]: significantly improved
pulmonary inflammation and cell apoptosis [3]: down-regulated
brain injury associated with focal ischemia-reperfusion (brain injury): markedly suppressed
LPS-induced pulmonary early and late NF-κB activation (NF-κB): inhibited

O=C(O)c1ccccc1Nc1cccc(C(F)(F)F)c1 [FA]
Ca2+ influx (TRPM2): blocked

O=O [O2, oxygen]
lung collagen accumulation (neonatal piglets): increases

Clc1ccc(COC(Cn2ccnc2)c2ccc(Cl)cc2Cl)cc1 (stereo not drawn) [Econazole]
PMN directionality (PMN (Neutrophil)): significantly inhibited
Ca2+ influx (TRPM2): blocked

Clc1ccccc1C(c1ccccc1)(c1ccccc1)n1ccnc1 [clotrimazole]
PMN directionality (PMN (Neutrophil)): significantly inhibited
Ca2+ influx (TRPM2): blocked
